Source: PubChem BioAssay (NCI)
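Each compound was tested at five concentrations against cells in 96-well plates for 48 hours. TGI denotes the concentration required for complete inhibition of growth.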

What was measured:
Test in all cases: NCI anticancer screen, dose series, 48 h
UACC-257 melanoma = system: UACC-257 melanoma
U251 CNS = system: U251 CNS
RPMI-8226 leukemia = system: RPMI-8226 leukemia
SF-268 CNS = system: SF-268 CNS
LOX IMVI melanoma = system: LOX IMVI melanoma
UO-31 renal = system: UO-31 renal
TK-10 renal = system: TK-10 renal
OVCAR-3 ovarian = system: OVCAR-3 ovarian
SNB-75 CNS = system: SNB-75 CNS
NCI-H522 lung = system: NCI-H522 lung
HCT-116 colon = system: HCT-116 colon
UACC-62 melanoma = system: UACC-62 melanoma
SK-MEL-28 melanoma = system: SK-MEL-28 melanoma
SF-539 CNS = system: SF-539 CNS
NCI-H226 lung = system: NCI-H226 lung
A498 renal = system: A498 renal
CCRF-CEM leukemia = system: CCRF-CEM leukemia
NCI/ADR-RES ovarian = system: NCI/ADR-RES ovarian
MDA-MB-435 = system: MDA-MB-435
M14 melanoma = system: M14 melanoma
HL-60(TB) leukemia = system: HL-60(TB) leukemia
PC-3 prostate = system: PC-3 prostate
NCI-H460 lung = system: NCI-H460 lung
A549 NSCLC = system: A549 NSCLC
RXF 393 renal = system: RXF 393 renal
786-0 renal = system: 786-0 renal
HS 578T breast = system: HS 578T breast
SNB-19 CNS = system: SNB-19 CNS
MDA-N = system: MDA-N
SN12C renal = system: SN12C renal
DU-145 prostate = system: DU-145 prostate
COLO 205 colon = system: COLO 205 colon
HT29 colon = system: HT29 colon
EKVX NSCLC = system: EKVX NSCLC
HCT-15 colon = system: HCT-15 colon
HOP-62 NSCLC = system: HOP-62 NSCLC
MDA-MB-231 breast = system: MDA-MB-231 breast
MALME-3M melanoma = system: MALME-3M melanoma
SW-620 colon = system: SW-620 colon
SR leukemia = system: SR leukemia
CAKI-1 renal = system: CAKI-1 renal
OVCAR-8 ovarian = system: OVCAR-8 ovarian
NCI-H23 lung = system: NCI-H23 lung
IGROV1 ovarian = system: IGROV1 ovarian
KM12 colon = system: KM12 colon
HOP-92 NSCLC = system: HOP-92 NSCLC
OVCAR-4 ovarian = system: OVCAR-4 ovarian
MOLT-4 leukemia = system: MOLT-4 leukemia
BT-549 breast = system: BT-549 breast
SF-295 CNS = system: SF-295 CNS
MCF7 breast = system: MCF7 breast
K-562 leukemia = system: K-562 leukemia
SK-MEL-2 melanoma = system: SK-MEL-2 melanoma
OVCAR-5 ovarian = system: OVCAR-5 ovarian
SK-MEL-5 melanoma = system: SK-MEL-5 melanoma
HCC-2998 colon = system: HCC-2998 colon
SK-OV-3 ovarian = system: SK-OV-3 ovarian
T-47D breast = system: T-47D breast
ACHN renal = system: ACHN renal

Measured: TGI

COc1ccc(-c2cc(O)c3nc4ccccc4n3c2)cc1
not listed: SK-MEL-2 melanoma | OVCAR-5 ovarian | SK-MEL-5 melanoma | HCC-2998 colon | SK-OV-3 ovarian | T-47D breast | ACHN renal
> 100 µM: all other assays above

COc1cc2nc3n(c(=O)c2cc1OC)-c1ccc([N+](=O)[O-])cc1C3=O
35 µM: UO-31 renal
92.1 µM: CAKI-1 renal
78.6 µM: A498 renal
40.1 µM: MDA-MB-435
79.7 µM: RXF 393 renal
62.2 µM: SW-620 colon
32 µM: MCF7 breast
63.9 µM: OVCAR-4 ovarian
not listed: CCRF-CEM leukemia | HL-60(TB) leukemia | SR leukemia
> 100 µM: all other assays above
